The values below are quoted from earlier work in patent US20230084129A1, “PHARMACEUTICAL COMPOSITION COMPRISING ESOMEPRAZOLE AND SODIUM BICARBONATE HAVING EXCELLENT RELEASE PROPERTIES” (Chong Kun Dang Pharmaceutical Corp., priority 2020, published 2023).

The conditions of this data set: aqueous solution having a pH of 3 or less.

Take `COc1ccc2nc([S@@+]([O-])Cc3ncc(C)c(OC)c3C)[nH]c2c1` [esomeprazole, (S)-5-methoxy-2-[(4-methoxy-3,5-dimethyl-2-pyridinyl)-methyl]sulfinyl-1H-benzimidazole]: the degradation half-life result is given as “less than 10 minutes”.
